Data published in patent publication EP0808832B1, “Fluorinated vitamin D3 analogs” (F. HOFFMANN-LA ROCHE AG, priority 1996, dated 1997).
Several values for one entry are separate records, joined by “and”; a condition that tells them apart may be missing. Identical values can stand only once. Like-named read-outs stand apart in the source and are kept apart here.

Experiments:
[1] = tested on: rats are ovariectomized (Ovx); format: in vivo, rat; settings: for Whole Femur BMD: 3 to 6 weeks post-ovariectomy, right femur; for Urine Calcium/Creatinine 6th wk): 0.20 µg/kg once a day by mouth
Source text: Three month old rats are ovariectomized (Ovx) and administered either 1,25-dihydroxy vitamin D3 (vit. D in Table) or one of the compounds of the present invention once a day by mouth starting at 3 weeks post-ovariectomy and continuing until final sacrifice at 6 weeks post-ovariectomy. Control groups, both sham (rats that were not ovariectomized) and Ovx, received vehicle only. Blood and urine samples were collected twice, at 4 weeks post-ovariectomy and again at the 6 week mark and the amount of serum and urine calcium was determined. The final femoral calcium determined upon sacrifice 6 weeks post- ovariectomy.
The bone mineral density (BMD) of the right femur was determined by using a High Resolution Software Package on a QDR-1000W Bone Densitometer™ (Hologic, Walthan, MA). The animals were scanned by placing them on a scanning block in a supine position such that the right leg was perpendicular to the main body and the tibia was perpendicular to the femur.
The increase in the bone mineral density and the amount of calcium in the urine and the serum for some of the compounds of this invention in this assay are given in the table below: […]

[2] = tested on: women with postmenopausal osteoporosis; settings: 0.25 microgram twice daily, after 3 years, mild to moderate disease, compared with elemental calcium 1000 mg/day; cited from earlier work

Question: With C=C1/C(=C\C=C2/CCC[C@]3(C)C([C@@H](C)C/C=C/C(C)(O)C(F)(F)F)=CC[C@@H]23)C[C@@H](O)C[C@@H]1F (stereo partly drawn) [Cpd. 57, 1-α-Fluoro-25(RS)-hydroxy-16,23E-diene-26-trifluoro-20-epi-cholecalciferol] as the compound, how does the Whole Femur BMD ([1]; 1.50 µg/kg once a day by mouth) read?
Answer: 0.248 g/cm^2

Question: Which Whole Femur BMD ([1]; 5.00 µg/kg once a day by mouth) does the source give for C=C1/C(=C\C=C2/CCC[C@]3(C)[C@@H](C4(CC#CC(C)(C)O)CC4)CC[C@@H]23)C[C@@H](O)C[C@@H]1F [Cpd. 58, 1-α-Fluoro-25-hydroxy-23-yne-20,21,28-cyclopropylcholecalciferol] here?
Answer: 0.236 g/cm^2

Question: For C=C1/C(=C\C=C2/CCC[C@]3(C)C([C@@H](C)CC#CC4(O)CCCC4)=CC[C@@H]23)C[C@@H](O)C[C@@H]1F [Cpd. 59, 1-α-Fluoro-25-hydroxy-16-ene-23-yne-25,26,27-cyclopentyl-20-epi-cholecalciferol], which Whole Femur BMD ([1]; 2.00 µg/kg once a day by mouth) is on record?
Answer: 0.233 g/cm^2

Question: For C=C1/C(=C\C=C2/CCC[C@]3(C)[C@@H](C4(C/C=C/C(O)(C(F)(F)F)C(F)(F)F)CC4)CC[C@@H]23)C[C@@H](O)C[C@@H]1F [Cpd. 60, 1-α-Fluoro-25-hydroxy-23E-ene-26,27-hexafluoro-20,21,28-cyclopropyl-cholecalciferol], which Whole Femur BMD ([1]; 0.10 µg/kg once a day by mouth) is on record?
Answer: 0.242 g/cm^2

Question: Which Whole Femur BMD ([1]; 0.50 µg/kg once a day by mouth) does the source give for C=C1/C(=C\C=C2/CCC[C@]3(C)[C@@H](C4(CC#CC(O)(C(F)(F)F)C(F)(F)F)CC4)CC[C@@H]23)C[C@@H](O)C[C@@H]1F [Cpd. 61, 1-α-Fluoro-25-hydroxy-23-yne-26,27-hexafluoro-20,21,28-cyclopropyl-cholecalciferol] here?
Answer: 0.243 g/cm^2

Question: Which “lower rate of new vertebral fractures” value [2] does the source give for C=C1/C(=C\C=C2/CCC[C@]3(C)[C@@H]([C@H](C)CCCC(C)(C)O)CC[C@@H]23)C[C@@H](O)C[C@@H]1O [Vit D, 1,25-dihydroxy vitamin D3] here?
Answer: 3 fold

Question: And the “Urine Calcium/Creatinine 6th wk)” value [1]?
Answer: 1.35 mg/dL and 1.44 mg/dL

Question: What about the “Urine Calcium/Creatinine 6th wk)” value ([1]; listed as Vit. D) of the same compound?
Answer: 0.76 mg/dL and 1.44 mg/dL and 1.48 mg/dL
